Active and inactive are the calls of the source.
Key:
[1] = biological target: T1, Mu-type opioid receptor (Homo sapiens, UniProt P35372); experiment: HTS Image-Based Screen for Agonists of the MOR Receptor. [Related pubchem assays (depositor defined):AID1777, AID1785, AID1786, AID2133]; type: functional
[2] = biological target: T2, Kappa-type opioid receptor (Homo sapiens, UniProt P41145); experiment: SAR analysis of small molecule agonists of the kappa opioid receptor via a luminescent beta-arrestin assay. [Related pubchem assays (depositor defined):AID1777, AID1786, AID1966, AID2133, AID2136, AID2348, AID2352, AID2357, AID2359, AID2370, AID2420, AID2478, AID2491, AID2492, AID2493, AID2497, AID2498, AID2500, AID449737, AID488822, AID488842]; type: functional
T2 sequence (P41145 whole entry): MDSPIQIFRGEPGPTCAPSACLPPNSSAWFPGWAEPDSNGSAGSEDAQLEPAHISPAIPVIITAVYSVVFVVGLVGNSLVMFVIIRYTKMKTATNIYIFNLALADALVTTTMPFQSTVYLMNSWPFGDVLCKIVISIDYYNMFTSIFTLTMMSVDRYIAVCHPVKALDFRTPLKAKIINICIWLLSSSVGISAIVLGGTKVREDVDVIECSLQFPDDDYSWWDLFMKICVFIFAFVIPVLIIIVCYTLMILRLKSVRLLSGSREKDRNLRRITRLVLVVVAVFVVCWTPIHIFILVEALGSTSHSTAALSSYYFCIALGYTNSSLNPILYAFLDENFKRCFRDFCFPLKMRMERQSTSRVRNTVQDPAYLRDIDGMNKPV

[3] = biological target: T2, Kappa-type opioid receptor; type: functional
[4] = biological target: T2, Kappa-type opioid receptor; type: functional; remark: listed apart in the source
[5] = biological target: T2, Kappa-type opioid receptor; experiment: kappa opioid receptor activation potency – imaging, image-based, SAR follow-up (AID 2359); type: functional
[6] = biological target: T2, Kappa-type opioid receptor; type: functional; remark: listed apart in the source
[7] = biological target: T1, Mu-type opioid receptor; experiment: mu opioid receptor blockers – image-based, SAR follow-up (AID 2420); type: functional;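 also: compounds added before stimulation of receptor with agonist DAMGO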
[8] = biological target: T3, Delta-type opioid receptor (Homo sapiens, UniProt P41143); experiment: delta opioid receptor blockers – image-based, SAR follow-up (AID 2357); type: functional
T3 sequence (P41143 whole entry): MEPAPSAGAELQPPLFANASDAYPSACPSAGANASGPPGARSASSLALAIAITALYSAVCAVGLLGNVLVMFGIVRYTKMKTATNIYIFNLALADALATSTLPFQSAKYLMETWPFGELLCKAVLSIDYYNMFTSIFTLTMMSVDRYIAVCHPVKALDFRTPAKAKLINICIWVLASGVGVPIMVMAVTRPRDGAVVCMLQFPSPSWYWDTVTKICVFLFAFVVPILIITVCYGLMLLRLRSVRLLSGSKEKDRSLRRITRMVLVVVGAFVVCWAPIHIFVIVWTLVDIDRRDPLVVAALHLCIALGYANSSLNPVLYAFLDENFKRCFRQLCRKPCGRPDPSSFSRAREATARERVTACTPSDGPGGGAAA

[9] = biological target: T2, Kappa-type opioid receptor; experiment: kappa opioid receptor blockers, image-based, SAR follow-up (AID 2348); type: functional
[10] = biological target: T3, Delta-type opioid receptor; experiment: HTS Image-Based Screen for Agonists of the DOR Receptor. [Related pubchem assays (depositor defined):AID1777, AID1786, AID2133]; type: functional
[11] = biological target: T3, Delta-type opioid receptor; experiment: DOR agonists, SAR follow-up, image-based (AID 2370); type: functional
[12] = biological target: T1, Mu-type opioid receptor; experiment: mu opioid receptor activators, image-based, SAR follow-up (AID 2352); type: functional
[13] = biological target: T3, Delta-type opioid receptor; experiment: HTS Image-Based Screen for Antagonists of the DOR Receptor. [Related pubchem assays (depositor defined):AID1777, AID1785, AID1786, AID2133]; type: functional
[14] = reduction of Shn3 3'UTR-driven luciferase in osteoblasts – cell-based, Clone20 osteoblasts, firefly luciferase, cherry-picked, dose response (AID 624132); type: functional;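 also: firefly luciferase luminescence from reporter carrying the Shn3 3'UTR in osteoblasts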
[15] = biological target: Mucolipin-3 (Homo sapiens, UniProt Q8TDD5); experiment: Fluorescence counterscreen assay for […] agonists: dose response cell-based high-throughput screening assay to identify agonists of the transient receptor potential channel ML3 (TRPML3). [Related pubchem assays: 1424, 1448 ]; type: functional
Sequence of Mucolipin-3 (Q8TDD5 whole entry): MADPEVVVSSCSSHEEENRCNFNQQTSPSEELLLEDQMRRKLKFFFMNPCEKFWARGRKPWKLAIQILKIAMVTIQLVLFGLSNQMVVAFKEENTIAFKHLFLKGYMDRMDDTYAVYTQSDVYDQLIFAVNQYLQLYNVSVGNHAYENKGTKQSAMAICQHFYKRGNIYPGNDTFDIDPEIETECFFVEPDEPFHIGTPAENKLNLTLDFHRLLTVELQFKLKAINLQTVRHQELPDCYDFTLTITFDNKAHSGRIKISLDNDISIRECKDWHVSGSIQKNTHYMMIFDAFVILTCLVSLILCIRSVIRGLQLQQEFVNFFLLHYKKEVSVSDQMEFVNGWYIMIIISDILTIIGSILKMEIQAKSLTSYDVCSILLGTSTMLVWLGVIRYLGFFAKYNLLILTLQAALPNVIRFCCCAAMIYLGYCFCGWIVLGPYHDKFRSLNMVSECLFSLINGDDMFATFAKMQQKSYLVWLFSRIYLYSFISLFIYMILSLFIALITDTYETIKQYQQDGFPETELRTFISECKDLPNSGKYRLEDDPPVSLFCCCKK

[16] = biological target: Ion channel NompC (Danio rerio, UniProt Q7T1G6); experiment: Dose response cell-based high-throughput screening assay for agonists of the transient receptor potential channel N1 (TRPN1). [Related pubchem assays (depositor defined):AID1424, AID1448]; type: functional
[17] = loss of viability in HepG2 cells – cell-based, CellTiter-Glo, cherry-picked, cytotoxicity control for Shn3 inhibitor project, dose response (AID 624134); type: functional
[18] = non-specific 3'UTR reporter inhibition in Clone20-Shn3RL – cell-based, Renilla luciferase, cherry-picked, counter-screen for Shn3 inhibitor project, dose response (AID 624133); type: functional
[19] = biological target: T4, Dual specificity protein phosphatase 6 (Rattus norvegicus, UniProt Q64346); type: functional
T4 sequence (Q64346 whole entry): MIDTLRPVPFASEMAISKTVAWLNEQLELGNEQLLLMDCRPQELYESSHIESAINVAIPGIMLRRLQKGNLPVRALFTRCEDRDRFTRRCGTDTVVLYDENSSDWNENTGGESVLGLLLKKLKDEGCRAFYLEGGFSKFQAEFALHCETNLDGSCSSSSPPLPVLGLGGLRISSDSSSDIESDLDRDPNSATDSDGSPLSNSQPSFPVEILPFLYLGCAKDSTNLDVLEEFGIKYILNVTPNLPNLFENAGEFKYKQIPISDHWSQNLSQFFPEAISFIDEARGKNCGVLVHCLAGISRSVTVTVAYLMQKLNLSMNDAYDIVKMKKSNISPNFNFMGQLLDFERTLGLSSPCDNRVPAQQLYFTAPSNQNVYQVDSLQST

[20] = biological target: T5, Tyrosine-protein phosphatase non-receptor type 7 (Homo sapiens, UniProt P35236); experiment: redox-active compounds inhibiting HePTP phosphatase – biochemical, fluorescence, mechanism study (AID 2068); type: functional
T5 sequence (P35236 whole entry): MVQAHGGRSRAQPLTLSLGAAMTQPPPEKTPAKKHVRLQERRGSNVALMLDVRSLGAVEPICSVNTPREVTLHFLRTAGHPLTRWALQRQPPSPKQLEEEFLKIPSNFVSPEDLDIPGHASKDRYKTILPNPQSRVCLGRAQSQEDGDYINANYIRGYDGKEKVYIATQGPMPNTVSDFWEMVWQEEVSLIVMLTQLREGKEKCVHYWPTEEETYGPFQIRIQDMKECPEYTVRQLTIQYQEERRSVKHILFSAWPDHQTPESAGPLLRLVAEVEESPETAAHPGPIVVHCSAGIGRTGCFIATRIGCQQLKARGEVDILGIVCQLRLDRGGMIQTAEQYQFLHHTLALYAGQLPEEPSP

[21] = biological target: T4, Dual specificity protein phosphatase 6; experiment: inhibition of rat DUSP6 enzyme activity – biochemical, in vitro, primary screen (AID 425)
[22] = biological target: Peroxisome proliferator-activated receptor gamma/Nuclear receptor coactivator 1 (Homo sapiens, UniProt P37231); type: functional;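 also: agonist potency as compounds enhance coactivator SRC-1 recruitment to PPARgamma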
[23] = biological target: Peroxisome proliferator-activated receptor gamma/Nuclear receptor coactivator 2 (Homo sapiens, UniProt P37231); type: functional;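 also: agonist potency for raising coactivator recruitment to the receptor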
[24] = biological target: T6, Dual specificity protein phosphatase 3 (Homo sapiens, UniProt P51452); experiment: VHR1 phosphatase inhibitors, biochemical (AID 1878)
T6 sequence (P51452 whole entry): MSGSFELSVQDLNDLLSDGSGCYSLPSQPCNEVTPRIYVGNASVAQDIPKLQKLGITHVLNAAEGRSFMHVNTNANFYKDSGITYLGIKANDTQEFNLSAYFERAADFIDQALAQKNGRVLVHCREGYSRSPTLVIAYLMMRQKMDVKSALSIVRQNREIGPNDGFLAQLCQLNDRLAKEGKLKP

[25] = biological target: T5, Tyrosine-protein phosphatase non-receptor type 7; experiment: SAR analysis of chemical inhibitors of HePTP using a Fluorescent assay - Set 2. [Related pubchem assays (depositor defined):AID1059, AID1077, AID1661, AID2085, AID521]; type: functional
[26] = biological target: T6, Dual specificity protein phosphatase 3; experiment: VHR1 phosphatase inhibitors, primary screen, biochemical, absorbance, uHTS (AID 1654)
[27] = biological target: DNA dC->dU-editing enzyme APOBEC-3G (Homo sapiens, UniProt Q9HC16); experiment: Dose Response confirmation of small molecule APOBEC3G DNA Deaminase Inhibitors via a fluorescence-based single-stranded DNA deaminase assay. [Related pubchem assays (depositor defined):AID493012, AID493028]; type: functional
Sequence of DNA dC->dU-editing enzyme APOBEC-3G (Q9HC16 whole entry): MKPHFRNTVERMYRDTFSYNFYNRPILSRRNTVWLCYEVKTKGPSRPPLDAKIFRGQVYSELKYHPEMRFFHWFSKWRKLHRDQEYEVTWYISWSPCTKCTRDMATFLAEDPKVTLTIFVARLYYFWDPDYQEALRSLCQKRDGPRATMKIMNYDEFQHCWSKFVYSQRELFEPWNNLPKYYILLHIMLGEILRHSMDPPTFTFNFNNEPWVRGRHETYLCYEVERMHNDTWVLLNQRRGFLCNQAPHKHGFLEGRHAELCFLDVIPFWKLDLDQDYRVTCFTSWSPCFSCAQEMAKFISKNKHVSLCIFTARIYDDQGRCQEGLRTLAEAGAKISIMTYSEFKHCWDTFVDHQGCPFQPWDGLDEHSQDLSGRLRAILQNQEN

[28] = biological target: DNA dC->dU-editing enzyme APOBEC-3A (Homo sapiens, UniProt P31941); experiment: A3A deaminase inhibition for selectivity – biochemical, dose response (AID 504722); type: functional
Sequence of DNA dC->dU-editing enzyme APOBEC-3A (P31941 whole entry): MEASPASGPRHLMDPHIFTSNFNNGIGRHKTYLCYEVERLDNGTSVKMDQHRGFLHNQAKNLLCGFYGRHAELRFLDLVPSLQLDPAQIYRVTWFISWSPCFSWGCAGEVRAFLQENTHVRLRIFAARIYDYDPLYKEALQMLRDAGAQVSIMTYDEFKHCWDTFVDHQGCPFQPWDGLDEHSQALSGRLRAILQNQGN

[29] = biological target: Glucose-6-phosphate 1-dehydrogenase (Homo sapiens, UniProt P11413); experiment: inhibition of Homo sapiens G6PD, dose series – biochemical, fluorescence, selectivity assay for P. falciparum G6PD inhibitor project, dose response (AID 504792); type: functional
Sequence of Glucose-6-phosphate 1-dehydrogenase (P11413 whole entry): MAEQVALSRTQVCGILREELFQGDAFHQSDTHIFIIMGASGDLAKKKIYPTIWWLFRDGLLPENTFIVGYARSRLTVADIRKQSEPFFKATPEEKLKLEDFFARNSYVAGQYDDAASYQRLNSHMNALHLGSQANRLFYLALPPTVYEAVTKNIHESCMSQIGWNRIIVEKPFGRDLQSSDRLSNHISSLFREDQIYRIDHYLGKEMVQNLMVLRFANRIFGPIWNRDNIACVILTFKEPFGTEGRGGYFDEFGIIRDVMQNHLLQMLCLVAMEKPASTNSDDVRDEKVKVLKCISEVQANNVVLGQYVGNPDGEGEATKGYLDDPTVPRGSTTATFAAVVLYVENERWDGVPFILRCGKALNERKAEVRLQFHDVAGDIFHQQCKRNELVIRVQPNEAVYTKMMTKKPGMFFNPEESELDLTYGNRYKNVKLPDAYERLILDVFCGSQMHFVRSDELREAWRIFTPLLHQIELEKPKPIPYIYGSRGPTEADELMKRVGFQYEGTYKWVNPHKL

[30] = biological target: T6, Dual specificity protein phosphatase 3; experiment: SAR VHR1 Fluorescent Assay for In Vitro dose response studies Set 2. [Related pubchem assays (depositor defined):AID1654, AID1661, AID1878]; type: functional
[31] = biological target: T4, Dual specificity protein phosphatase 6; experiment: SAR analysis of inhibitors of MKP-3 - Set 2. [Related pubchem assays (depositor defined):AID1055, AID1661, AID425, AID553, AID566]; type: functional
[32] = biological target: T6, Dual specificity protein phosphatase 3; experiment: SAR VHR1 Fluorescent Assay for In Vitro dose response studies. [Related pubchem assays (depositor defined):AID1654, AID1661, AID1878, AID1992, AID2004, AID2070, AID2085]; type: functional
[33] = biological target: Peroxisome proliferator-activated receptor gamma/Nuclear receptor coactivator 3 (Homo sapiens, UniProt P37231); type: functional;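 also: agonist potency for raising coactivator recruitment to the receptor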
[34] = biological target: T6, Dual specificity protein phosphatase 3; experiment: SAR VHR1 absorbance Assay for In Vitro dose response studies. [Related pubchem assays (depositor defined):AID1654, AID1661, AID1878, AID1992, AID2004]
[35] = biological target: T7, Alkaline phosphatase, tissue-nonspecific isozyme (Homo sapiens, UniProt P05186); experiment: TNAP enzyme inhibition by screening hits, dose response, selectivity assay for mouse IAP inhibitor project, biochemical, human TNAP, uHTS hits (AID 488906); type: functional
T7 sequence (P05186 whole entry): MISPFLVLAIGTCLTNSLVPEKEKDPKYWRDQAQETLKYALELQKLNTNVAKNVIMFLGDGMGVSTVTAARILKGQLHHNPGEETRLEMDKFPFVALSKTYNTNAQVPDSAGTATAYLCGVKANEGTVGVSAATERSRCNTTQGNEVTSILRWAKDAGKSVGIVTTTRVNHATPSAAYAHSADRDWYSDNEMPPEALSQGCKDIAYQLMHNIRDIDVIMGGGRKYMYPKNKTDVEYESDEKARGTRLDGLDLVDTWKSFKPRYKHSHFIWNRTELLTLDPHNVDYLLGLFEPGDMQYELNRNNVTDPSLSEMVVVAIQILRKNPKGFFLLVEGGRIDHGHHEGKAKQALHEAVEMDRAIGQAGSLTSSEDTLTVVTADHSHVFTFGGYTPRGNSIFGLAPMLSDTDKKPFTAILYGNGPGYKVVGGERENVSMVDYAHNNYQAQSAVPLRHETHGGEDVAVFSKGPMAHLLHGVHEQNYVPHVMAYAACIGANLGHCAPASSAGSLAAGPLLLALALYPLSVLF

[36] = biological target: Intestinal-type alkaline phosphatase (Mus musculus, UniProt P24822); experiment: PubChem AID 488785; type: functional
Sequence of Intestinal-type alkaline phosphatase (Mus musculus, UniProt P24822) (P24822 whole entry): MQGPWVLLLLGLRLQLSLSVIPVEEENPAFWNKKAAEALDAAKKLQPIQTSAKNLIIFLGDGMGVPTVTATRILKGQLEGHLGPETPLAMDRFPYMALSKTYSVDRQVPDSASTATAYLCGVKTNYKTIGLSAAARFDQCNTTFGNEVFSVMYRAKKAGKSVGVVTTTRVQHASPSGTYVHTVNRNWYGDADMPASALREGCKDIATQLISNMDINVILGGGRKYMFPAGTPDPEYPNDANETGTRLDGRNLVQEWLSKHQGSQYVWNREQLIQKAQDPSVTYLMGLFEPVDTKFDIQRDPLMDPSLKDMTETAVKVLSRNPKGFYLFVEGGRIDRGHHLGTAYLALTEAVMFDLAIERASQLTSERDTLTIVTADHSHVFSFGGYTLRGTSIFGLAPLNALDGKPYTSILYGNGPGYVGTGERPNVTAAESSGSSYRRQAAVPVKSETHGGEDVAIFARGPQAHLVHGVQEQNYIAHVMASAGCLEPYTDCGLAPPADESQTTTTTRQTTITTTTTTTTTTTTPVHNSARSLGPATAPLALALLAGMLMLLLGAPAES

[37] = biological target: Intestinal-type alkaline phosphatase (Homo sapiens, UniProt P09923); experiment: activation of human intestinal alkaline phosphatase – biochemical, dose response (AID 488873); type: functional
Sequence of Intestinal-type alkaline phosphatase (Homo sapiens, UniProt P09923) (P09923 whole entry): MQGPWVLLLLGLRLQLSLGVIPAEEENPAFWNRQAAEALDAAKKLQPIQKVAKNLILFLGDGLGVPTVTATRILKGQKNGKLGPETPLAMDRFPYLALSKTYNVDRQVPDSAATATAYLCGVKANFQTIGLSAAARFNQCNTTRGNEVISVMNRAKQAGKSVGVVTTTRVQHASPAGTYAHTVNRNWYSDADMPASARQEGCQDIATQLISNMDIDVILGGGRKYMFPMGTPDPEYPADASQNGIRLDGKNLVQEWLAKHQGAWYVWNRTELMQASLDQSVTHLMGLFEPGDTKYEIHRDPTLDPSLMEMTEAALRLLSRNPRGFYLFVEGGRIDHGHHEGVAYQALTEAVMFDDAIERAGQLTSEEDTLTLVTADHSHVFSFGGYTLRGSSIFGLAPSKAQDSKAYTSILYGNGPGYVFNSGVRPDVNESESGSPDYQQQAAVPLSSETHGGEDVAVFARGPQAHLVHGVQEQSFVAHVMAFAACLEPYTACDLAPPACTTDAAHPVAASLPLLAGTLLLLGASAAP

T1 sequence (P35372 whole entry): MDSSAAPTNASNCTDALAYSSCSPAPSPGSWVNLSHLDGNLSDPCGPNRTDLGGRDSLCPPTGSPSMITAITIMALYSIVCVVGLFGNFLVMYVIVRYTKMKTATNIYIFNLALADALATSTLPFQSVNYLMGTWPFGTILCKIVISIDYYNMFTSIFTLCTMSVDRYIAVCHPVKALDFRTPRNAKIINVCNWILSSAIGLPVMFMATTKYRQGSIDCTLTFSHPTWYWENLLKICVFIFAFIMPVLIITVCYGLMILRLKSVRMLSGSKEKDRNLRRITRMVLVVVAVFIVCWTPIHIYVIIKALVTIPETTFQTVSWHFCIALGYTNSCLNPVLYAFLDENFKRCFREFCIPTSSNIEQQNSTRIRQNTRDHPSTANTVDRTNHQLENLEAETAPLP

O=C(c1ccccn1)N(Cc1cccs1)C1(C(=O)NC2CCCCC2)CCCCC1
EC50 [1]: > 32 µM (inactive) | EC50 [2]: 0.116 µM (active) | EC50 [3]: < 0.5 µM | IC50 [4]: > 5 µM (inactive) | EC50 [5]: < 0.06 µM (active) | EC50 [6]: 0.103 µM | IC50 [7]: > 32 µM (inactive) | IC50 [8]: > 32 µM (inactive) | IC50 [9]: > 32 µM (inactive) | EC50 [10]: > 32 µM (inactive) | EC50 [11]: > 32 µM (inactive) | EC50 [12]: > 32 µM (inactive) | IC50 [13]: > 32 µM (inactive)

Cc1ccc([N+](=O)[O-])cc1NC(=O)Nc1cccc(F)c1
AC50 [14]: 2.21 µM (active) | EC50 [15]: > 29.9 µM (not active) | EC50 [16]: > 29.9 µM (inactive) | AC50 [17]: 7.82 µM (active) | AC50 [18]: 2.13 µM (active)

Cc1ccc(-n2c(N)c(C(=O)N3CCN(C)CC3)sc2=S)cc1
IC50 [19]: > 99 µM (inactive) | IC50 [20]: 0.0144 µM (active) | IC50 [21]: > 158 µM (not active) | EC50 [22]: > 79.4 µM (not active) | EC50 [23]: > 79.4 µM (not active) | IC50 [24]: 5.73 µM (active) | IC50 [25]: 0.455 µM (active) | IC50 [26]: 2.33 µM (active) | IC50 [27]: 7.99 µM (active) | IC50 [28]: > 100 µM (inactive) | IC50 [29]: > 80 µM (inactive) | IC50 [30]: 0.402 µM (active) | IC50 [31]: > 100 µM (inactive) | IC50 [32]: > 99 µM (inactive) | EC50 [33]: > 79.4 µM (not active) | IC50 [34]: 0.25 µM (active)

CN(CC(=O)Nc1cccc(Cl)c1)S(=O)(=O)c1ccc2[nH]c(=O)oc2c1
IC50 [35]: 7.87 µM (active) | IC50 [36]: 9.88 µM (active) | EC50 [37]: > 100 µM (inactive)
